Common to all, as to experiment: Dundee kinase panel
Holding throughout (assay type): biochemical
Holding throughout (conditions): for remaining activity at 1 µM: read-out: residual activity

For one assay, the target named is T1, MNK2 (Homo sapiens, UniProt Q9HBH9).
T1 construct: lines 1-140) and Reaction Biology
Here is the method: (§1) Compounds were screened at 1 μM. For key hits, pIC50 values were then determined by HTRF as above. […] Stability in mouse and human liver microsomes was determined by Cyprotex.

The next assay concerns the target T2, RSK2 (Homo sapiens, UniProt P51812).
T2 construct: lines 1-140) and Reaction Biology
Here is the method:
as §1

For another assay, the target named is T3, PAK6 (Homo sapiens, UniProt Q9NQU5).
T3 construct: lines 1-140) and Reaction Biology
T3 sequence (Q9NQU5 whole entry): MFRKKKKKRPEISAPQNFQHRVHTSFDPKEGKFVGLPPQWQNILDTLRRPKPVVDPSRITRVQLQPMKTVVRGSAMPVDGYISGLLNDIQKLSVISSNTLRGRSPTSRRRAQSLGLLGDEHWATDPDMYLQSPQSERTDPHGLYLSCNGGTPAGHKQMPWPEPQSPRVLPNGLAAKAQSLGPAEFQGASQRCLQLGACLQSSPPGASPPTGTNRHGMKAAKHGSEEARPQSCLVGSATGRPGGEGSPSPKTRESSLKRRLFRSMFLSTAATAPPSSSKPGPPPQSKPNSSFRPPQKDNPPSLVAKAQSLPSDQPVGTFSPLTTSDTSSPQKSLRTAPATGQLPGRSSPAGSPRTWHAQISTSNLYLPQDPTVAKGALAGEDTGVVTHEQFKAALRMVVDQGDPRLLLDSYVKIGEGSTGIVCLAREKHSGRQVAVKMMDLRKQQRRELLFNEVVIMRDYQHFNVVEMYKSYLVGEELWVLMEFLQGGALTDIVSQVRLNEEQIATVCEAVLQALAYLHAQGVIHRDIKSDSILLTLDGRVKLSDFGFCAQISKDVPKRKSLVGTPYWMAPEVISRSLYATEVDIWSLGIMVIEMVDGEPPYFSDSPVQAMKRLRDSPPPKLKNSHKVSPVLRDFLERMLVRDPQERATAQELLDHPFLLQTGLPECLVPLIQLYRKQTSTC
The protocol:
as §1

A further assay deals with T4, PKCz (Homo sapiens, UniProt Q05513).
T4 construct: lines 1-140) and Reaction Biology
T4 sequence (Q05513 1-592): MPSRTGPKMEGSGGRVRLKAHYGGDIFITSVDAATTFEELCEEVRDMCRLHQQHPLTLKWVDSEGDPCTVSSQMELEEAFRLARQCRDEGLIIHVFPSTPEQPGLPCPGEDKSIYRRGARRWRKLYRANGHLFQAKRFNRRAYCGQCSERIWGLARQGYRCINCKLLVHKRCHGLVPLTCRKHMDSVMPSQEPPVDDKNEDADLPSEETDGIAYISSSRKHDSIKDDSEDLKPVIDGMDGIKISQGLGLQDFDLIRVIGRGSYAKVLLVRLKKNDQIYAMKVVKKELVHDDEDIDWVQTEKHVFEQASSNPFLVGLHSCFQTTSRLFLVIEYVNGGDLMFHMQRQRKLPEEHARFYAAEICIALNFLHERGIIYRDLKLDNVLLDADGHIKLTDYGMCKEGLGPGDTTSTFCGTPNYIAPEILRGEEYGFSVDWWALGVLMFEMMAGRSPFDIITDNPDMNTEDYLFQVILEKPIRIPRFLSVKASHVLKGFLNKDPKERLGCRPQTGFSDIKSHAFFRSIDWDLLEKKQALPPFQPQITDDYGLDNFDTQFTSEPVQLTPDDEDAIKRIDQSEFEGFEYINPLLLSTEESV
The protocol:
as §1

The next assay concerns the target T5, TLK1 (Homo sapiens, UniProt Q9UKI8).
T5 construct: lines 1-140) and Reaction Biology
T5 sequence (Q9UKI8 1-766): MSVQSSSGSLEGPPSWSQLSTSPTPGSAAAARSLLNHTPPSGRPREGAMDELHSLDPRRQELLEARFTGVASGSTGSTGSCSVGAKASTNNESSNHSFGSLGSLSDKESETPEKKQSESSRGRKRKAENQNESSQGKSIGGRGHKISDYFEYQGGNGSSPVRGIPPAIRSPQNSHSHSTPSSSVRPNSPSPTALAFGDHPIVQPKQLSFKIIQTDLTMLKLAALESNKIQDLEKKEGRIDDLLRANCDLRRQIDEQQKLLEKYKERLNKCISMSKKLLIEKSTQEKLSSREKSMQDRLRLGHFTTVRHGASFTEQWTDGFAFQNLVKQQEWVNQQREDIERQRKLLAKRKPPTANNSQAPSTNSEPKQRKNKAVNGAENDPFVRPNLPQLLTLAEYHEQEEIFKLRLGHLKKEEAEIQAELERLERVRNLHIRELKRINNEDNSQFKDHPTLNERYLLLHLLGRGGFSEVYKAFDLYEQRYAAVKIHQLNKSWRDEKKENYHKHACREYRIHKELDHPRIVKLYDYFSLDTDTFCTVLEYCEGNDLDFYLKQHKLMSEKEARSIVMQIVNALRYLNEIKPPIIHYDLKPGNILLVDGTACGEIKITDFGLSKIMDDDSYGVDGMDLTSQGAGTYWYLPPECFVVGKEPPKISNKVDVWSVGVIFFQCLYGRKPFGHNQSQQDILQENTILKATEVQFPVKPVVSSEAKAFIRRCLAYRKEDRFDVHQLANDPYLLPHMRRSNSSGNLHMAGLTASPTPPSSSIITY
The protocol: as §1

Another assay concerns the target T6, LCK (Homo sapiens, UniProt P06239).
T6 construct: lines 1-140) and Reaction Biology
The protocol: as §1

Another assay has as its target T7, MST3 (Homo sapiens, UniProt Q9Y6E0).
T7 construct: lines 1-140) and Reaction Biology
The protocol:
as §1

The next assay addresses T8, MLK1 (Homo sapiens, UniProt P80192).
T8 construct: lines 1-140) and Reaction Biology
The protocol:
as §1

The next assay has as its target T9, SmMLCK (Homo sapiens, UniProt Q15746).
T9 construct: lines 1-140) and Reaction Biology
The protocol: as §1

For a further assay, the target named is T10, MAPKAP-K3 (Homo sapiens, UniProt Q16644).
T10 construct: lines 1-140) and Reaction Biology
The protocol: as §1

A further assay addresses T11, CSK (Homo sapiens, UniProt P41240).
T11 construct: lines 1-140) and Reaction Biology
The protocol: as §1

The target of a further assay is T12, DAPK1 (Homo sapiens, UniProt P53355).
T12 construct: lines 1-140) and Reaction Biology
Here is the method:
as §1

T2 sequence (P51812 whole entry): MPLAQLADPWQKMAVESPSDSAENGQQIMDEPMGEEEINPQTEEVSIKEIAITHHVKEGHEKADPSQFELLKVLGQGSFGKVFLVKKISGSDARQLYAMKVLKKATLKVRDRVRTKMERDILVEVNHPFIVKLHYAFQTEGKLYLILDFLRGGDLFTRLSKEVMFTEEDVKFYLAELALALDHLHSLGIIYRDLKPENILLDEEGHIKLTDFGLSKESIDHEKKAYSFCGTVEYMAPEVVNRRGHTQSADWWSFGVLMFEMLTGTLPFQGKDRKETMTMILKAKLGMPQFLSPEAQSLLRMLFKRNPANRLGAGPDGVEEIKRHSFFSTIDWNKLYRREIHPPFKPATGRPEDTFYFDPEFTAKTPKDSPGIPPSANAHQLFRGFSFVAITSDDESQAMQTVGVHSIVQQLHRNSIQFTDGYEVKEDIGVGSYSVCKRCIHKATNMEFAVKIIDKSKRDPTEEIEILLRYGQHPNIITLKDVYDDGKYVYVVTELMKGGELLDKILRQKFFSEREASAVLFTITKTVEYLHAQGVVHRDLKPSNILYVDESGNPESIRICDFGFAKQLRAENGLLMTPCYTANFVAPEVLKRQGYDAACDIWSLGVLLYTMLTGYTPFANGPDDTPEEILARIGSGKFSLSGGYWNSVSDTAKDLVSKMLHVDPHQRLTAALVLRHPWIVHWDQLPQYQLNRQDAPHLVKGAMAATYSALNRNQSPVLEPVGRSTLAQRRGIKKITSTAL
T1 sequence (Q9HBH9 whole entry): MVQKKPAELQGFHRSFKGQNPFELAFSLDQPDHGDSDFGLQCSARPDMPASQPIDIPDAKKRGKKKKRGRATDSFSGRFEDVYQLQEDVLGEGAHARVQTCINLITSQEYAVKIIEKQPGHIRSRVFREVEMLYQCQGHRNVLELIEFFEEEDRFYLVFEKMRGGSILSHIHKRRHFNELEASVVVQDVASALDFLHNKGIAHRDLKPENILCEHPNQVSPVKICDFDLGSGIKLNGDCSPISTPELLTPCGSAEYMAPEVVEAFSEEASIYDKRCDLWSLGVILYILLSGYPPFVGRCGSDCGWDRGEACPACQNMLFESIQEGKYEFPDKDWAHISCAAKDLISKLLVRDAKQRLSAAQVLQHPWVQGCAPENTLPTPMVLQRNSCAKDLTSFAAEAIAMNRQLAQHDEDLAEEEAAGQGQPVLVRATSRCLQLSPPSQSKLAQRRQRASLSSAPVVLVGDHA
T9 sequence (Q15746 923-1914): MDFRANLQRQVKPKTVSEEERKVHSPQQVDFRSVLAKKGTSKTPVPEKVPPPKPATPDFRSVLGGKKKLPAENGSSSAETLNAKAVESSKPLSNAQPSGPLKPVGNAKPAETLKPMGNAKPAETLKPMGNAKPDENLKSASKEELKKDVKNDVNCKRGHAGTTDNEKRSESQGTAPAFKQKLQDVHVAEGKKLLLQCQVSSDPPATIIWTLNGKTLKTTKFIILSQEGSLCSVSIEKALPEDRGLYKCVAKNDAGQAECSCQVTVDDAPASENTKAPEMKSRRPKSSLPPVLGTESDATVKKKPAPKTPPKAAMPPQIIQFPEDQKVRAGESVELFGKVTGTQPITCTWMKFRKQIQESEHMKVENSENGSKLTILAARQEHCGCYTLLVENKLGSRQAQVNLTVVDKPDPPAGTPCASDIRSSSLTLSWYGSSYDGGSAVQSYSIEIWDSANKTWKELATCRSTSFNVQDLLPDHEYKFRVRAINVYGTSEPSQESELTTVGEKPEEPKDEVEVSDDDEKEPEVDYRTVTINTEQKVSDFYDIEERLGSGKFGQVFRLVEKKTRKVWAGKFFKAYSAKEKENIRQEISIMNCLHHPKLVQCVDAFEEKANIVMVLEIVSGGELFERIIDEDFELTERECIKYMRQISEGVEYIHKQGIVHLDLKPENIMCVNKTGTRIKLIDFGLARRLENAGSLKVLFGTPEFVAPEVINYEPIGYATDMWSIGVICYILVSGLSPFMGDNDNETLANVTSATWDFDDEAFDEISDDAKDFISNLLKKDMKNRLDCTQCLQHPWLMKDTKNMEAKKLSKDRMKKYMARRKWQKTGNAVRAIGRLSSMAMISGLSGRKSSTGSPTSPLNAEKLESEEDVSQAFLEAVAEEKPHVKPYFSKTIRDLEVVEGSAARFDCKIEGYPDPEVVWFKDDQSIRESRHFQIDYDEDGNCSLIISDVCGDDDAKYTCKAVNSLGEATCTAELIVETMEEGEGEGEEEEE
T7 sequence (Q9Y6E0 whole entry): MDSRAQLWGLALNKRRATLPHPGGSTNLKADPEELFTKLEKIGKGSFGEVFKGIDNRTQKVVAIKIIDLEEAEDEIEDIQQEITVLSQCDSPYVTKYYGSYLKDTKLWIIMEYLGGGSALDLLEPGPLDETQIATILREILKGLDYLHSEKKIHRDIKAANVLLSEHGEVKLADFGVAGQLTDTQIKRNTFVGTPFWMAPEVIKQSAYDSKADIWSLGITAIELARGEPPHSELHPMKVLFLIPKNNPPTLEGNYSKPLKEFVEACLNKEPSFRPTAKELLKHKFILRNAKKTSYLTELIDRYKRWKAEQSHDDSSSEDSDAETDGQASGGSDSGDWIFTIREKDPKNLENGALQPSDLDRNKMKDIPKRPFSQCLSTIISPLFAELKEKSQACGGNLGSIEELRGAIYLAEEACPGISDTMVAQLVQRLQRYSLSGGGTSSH
T11 sequence (P41240 whole entry): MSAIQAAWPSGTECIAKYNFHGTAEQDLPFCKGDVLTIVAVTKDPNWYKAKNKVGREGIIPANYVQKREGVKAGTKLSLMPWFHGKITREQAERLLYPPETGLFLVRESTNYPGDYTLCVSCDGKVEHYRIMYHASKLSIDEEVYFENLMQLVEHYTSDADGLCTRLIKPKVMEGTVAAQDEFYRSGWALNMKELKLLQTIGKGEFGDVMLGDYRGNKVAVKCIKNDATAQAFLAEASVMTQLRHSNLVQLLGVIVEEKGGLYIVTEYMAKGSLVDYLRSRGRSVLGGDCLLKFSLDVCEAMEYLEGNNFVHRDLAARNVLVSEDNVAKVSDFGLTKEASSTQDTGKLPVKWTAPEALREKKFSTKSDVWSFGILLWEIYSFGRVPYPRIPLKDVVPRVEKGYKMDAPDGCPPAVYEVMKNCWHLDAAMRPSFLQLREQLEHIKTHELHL
T8 sequence (P80192 whole entry): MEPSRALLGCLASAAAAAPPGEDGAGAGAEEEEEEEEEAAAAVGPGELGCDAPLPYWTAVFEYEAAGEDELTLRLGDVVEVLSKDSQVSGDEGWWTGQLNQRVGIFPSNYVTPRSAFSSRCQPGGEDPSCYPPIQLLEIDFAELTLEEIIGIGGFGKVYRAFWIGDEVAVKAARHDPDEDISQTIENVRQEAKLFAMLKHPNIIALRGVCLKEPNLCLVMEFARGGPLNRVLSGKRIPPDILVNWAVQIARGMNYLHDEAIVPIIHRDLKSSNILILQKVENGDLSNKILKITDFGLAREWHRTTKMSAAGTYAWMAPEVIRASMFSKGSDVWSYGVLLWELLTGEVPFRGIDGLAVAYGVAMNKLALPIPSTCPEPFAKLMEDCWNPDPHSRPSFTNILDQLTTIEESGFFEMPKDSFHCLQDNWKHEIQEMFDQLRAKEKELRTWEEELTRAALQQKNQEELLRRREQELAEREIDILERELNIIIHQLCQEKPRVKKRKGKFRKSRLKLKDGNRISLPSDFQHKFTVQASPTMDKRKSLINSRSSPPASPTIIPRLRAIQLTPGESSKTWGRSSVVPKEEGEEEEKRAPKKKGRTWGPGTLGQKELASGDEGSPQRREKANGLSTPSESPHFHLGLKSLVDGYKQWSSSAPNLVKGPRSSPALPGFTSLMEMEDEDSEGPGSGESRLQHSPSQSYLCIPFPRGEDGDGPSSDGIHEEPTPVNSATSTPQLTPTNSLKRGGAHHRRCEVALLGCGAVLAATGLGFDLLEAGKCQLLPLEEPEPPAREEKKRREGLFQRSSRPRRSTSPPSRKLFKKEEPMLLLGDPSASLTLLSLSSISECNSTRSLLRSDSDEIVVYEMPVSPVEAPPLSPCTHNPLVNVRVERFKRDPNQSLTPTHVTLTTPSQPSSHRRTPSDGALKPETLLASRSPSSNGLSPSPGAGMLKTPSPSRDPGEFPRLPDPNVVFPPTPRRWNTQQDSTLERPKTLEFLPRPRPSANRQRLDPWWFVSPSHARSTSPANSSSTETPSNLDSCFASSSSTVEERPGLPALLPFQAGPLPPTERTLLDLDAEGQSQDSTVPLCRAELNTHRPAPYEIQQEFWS

Consider `COCCOc1ccc(-c2cn(-c3ccccc3)c3nc[nH]c(=O)c23)cc1` [DMX-5804, 5-[4-(2-methoxy-ethoxy)-phenyl]-7-phenyl-3,7-dihydro-pyrrolo[2,3-d]pyrimidin-4-one], for which the remaining activity at 1 µM at MNK2 stood at 111%; on RSK2 it was 93%; on PAK6, 118%; on PKCz, 121%; on TLK1 it was 111%; on LCK, 109%. Also, the remaining activity at 1 µM was 95% at MST3; 9% at MLK1; 89% at SmMLCK; 104% at MAPKAP-K3; 103% at CSK; 133% at DAPK1.
Turning to `Oc1ncnc2c1c(-c1ccccc1)cn2-c1ccccc1` [F1386-0303, 5,7-diphenyl-7H-pyrrolo[2,3-d]pyrimidin-4-ol], the remaining activity at 1 µM at MNK2 worked out at 109%; at RSK2, 114%; at PAK6 it was 105%; at PKCz it was 108%; on TLK1, 103%; at LCK, 112%. Moreover, the remaining activity at 1 µM at MST3 is 120%; at MLK1, 43%; at SmMLCK it was 76%; at MAPKAP-K3, 104%; at CSK it was 97%; on DAPK1 it was 104%.
Regarding `Nc1ncc(C(=O)NC2CN(C(=O)C3CC3)C2)c2ccc(-c3cccc(F)c3)nc12` [GNE-495], the residual activity (commonly the signal under treatment as a percentage of the control signal) at MNK2 (1 μM) is recorded as 64%; on RSK2 (1 μM), 62%; at PAK6 (1 μM), 64%; at PKCz (1 μM) it was 82%; at TLK1 (1 μM), 77%; on LCK (1 μM), 104%. The residual activity at MST3 (1 μM) is reported as 72%; on MLK1 (1 μM) it was 25%; at SmMLCK (1 μM), 68%; at MAPKAP-K3 (1 μM), 99%; on CSK (1 μM), 94%; on DAPK1 (1 μM) it was 126%.
Take `O=C1Nc2ccc(I)cc2/C1=C/c1cc(Br)c(O)c(Br)c1` [GW5074]: the remaining activity at 1 µM came to 95% on MNK2; 49% at RSK2; 95% at PAK6; 88% on PKCz; 86% at TLK1; 58% at LCK. Also, the remaining activity at 1 µM at MST3 worked out at 29%; on MLK1, 85%; at SmMLCK, 40%; at MAPKAP-K3, 71%; at CSK it was 52%; at DAPK1, 29%.
For the compound `O=C1Cc2c([nH]c3ccc(Br)cc23)-c2ccccc2N1` [Kenpaullone], the remaining activity at 1 µM was 125% on MNK2; 32% at PAK6; 105% on PKCz; 95% at TLK1; 67% at MST3; 99% at MLK1. Also, the remaining activity at 1 µM at SmMLCK came out at 97%; on MAPKAP-K3, 83%; at CSK, 68%; on DAPK1, 82%.

These data come from PMC6458995, “MAP4K4 Inhibition Promotes Survival of Human Stem Cell-Derived Cardiomyocytes and Reduces Infarct Size In Vivo” (Cell Stem Cell, 2019).
